Source: the supplement of paper PMC10307832

Legend:
Test in all cases: relative viability (nuclei count vs DMSO), 5 days (fraction); higher = more cells survive
ChaGo-K-1 = system: ChaGo-K-1
How it was run: (§1)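 Relative viability equals treated-well nuclei counts divided by vehicle-well nuclei counts. Counts came from 4× images of lung cancer cell lines grown in 1536-well plates for 5 days after pin-tool dosing on the day after seeding. Dosing used one drug alone or a fixed anchor-drug dose plus five library-drug doses (not always all listed) in √10 steps, and values are medians of duplicate plates.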

EKVX = system: EKVX
How it was run: as §1

EMC-BAC-2 = system: EMC-BAC-2
How it was run: as §1

EPLC-272H = system: EPLC-272H
How it was run: as §1

HCC-827 = system: HCC-827
How it was run: as §1

LCLC-103H = system: LCLC-103H
How it was run: as §1

LK-2 = system: LK-2
How it was run: as §1

LU99A = system: LU99A
How it was run: as §1

NCI-H1563 = system: NCI-H1563
How it was run: as §1

NCI-H1666 = system: NCI-H1666
How it was run: as §1

NCI-H1975 = system: NCI-H1975
How it was run: as §1

NCI-H2126 = system: NCI-H2126
How it was run: as §1

NCI-H2342 = system: NCI-H2342
How it was run: as §1

NCI-H23 = system: NCI-H23
How it was run: as §1

NCI-H2405 = system: NCI-H2405
How it was run: as §1

NCI-H322M = system: NCI-H322M
How it was run: as §1

PC-14 = system: PC-14
How it was run: as §1

RERF-LC-KJ = system: RERF-LC-KJ
How it was run: as §1

SK-LU-1 = system: SK-LU-1
How it was run: as §1

SW 1573 = system: SW 1573
How it was run: as §1

SW 900 = system: SW 900
How it was run: as §1

COc1cc2nccc(Oc3ccc(NC(=O)Nc4cc(C)on4)c(Cl)c3)c2cc1OC [Tivozanib] + CCNC(=O)c1noc(-c2cc(C(C)C)c(O)cc2O)c1-c1ccc(CN2CCOCC2)cc1 [Luminespib] (partner 0.01 µM)
relative viability (ChaGo-K-1; first compound 0.005 µM): 0.622 | relative viability (ChaGo-K-1; first compound 0.01581 µM): 0.565 | relative viability (ChaGo-K-1; first compound 0.05 µM): 0.593 | relative viability (ChaGo-K-1; first compound 0.1581 µM): 0.497 | relative viability (ChaGo-K-1; first compound 0.5 µM): 0.502 | relative viability (EKVX; first compound 0.005 µM): 0.856 | relative viability (EKVX; first compound 0.01581 µM): 0.834 | relative viability (EKVX; first compound 0.05 µM): 0.879 | relative viability (EKVX; first compound 0.1581 µM): 0.908 | relative viability (EKVX; first compound 0.5 µM): 0.847 | relative viability (EMC-BAC-2; first compound 0.005 µM): 1.13 | relative viability (EMC-BAC-2; first compound 0.01581 µM): 1.18 | relative viability (EMC-BAC-2; first compound 0.05 µM): 1.26 | relative viability (EMC-BAC-2; first compound 0.1581 µM): 1.13 | relative viability (EMC-BAC-2; first compound 0.5 µM): 1.16 | relative viability (EPLC-272H; first compound 0.005 µM): 0.24 | relative viability (EPLC-272H; first compound 0.01581 µM): 0.383 | relative viability (EPLC-272H; first compound 0.05 µM): 0.34 | relative viability (EPLC-272H; first compound 0.1581 µM): 0.242 | relative viability (EPLC-272H; first compound 0.5 µM): 0.443 | relative viability (HCC-827; first compound 0.005 µM): 0.588 | relative viability (HCC-827; first compound 0.01581 µM): 0.63 | relative viability (HCC-827; first compound 0.05 µM): 0.413 | relative viability (HCC-827; first compound 0.1581 µM): 0.467 | relative viability (HCC-827; first compound 0.5 µM): 0.6 | relative viability (LCLC-103H; first compound 0.005 µM): 0.847 | relative viability (LCLC-103H; first compound 0.01581 µM): 0.85 | relative viability (LCLC-103H; first compound 0.05 µM): 0.91 | relative viability (LCLC-103H; first compound 0.1581 µM): 0.964 | relative viability (LCLC-103H; first compound 0.5 µM): 0.921 | relative viability (LK-2; first compound 0.005 µM): 0.179 | relative viability (LK-2; first compound 0.01581 µM): 0.225 | relative viability (LK-2; first compound 0.05 µM): 0.184 | relative viability (LK-2; first compound 0.1581 µM): 0.233 | relative viability (LK-2; first compound 0.5 µM): 0.206 | relative viability (LU99A; first compound 0.005 µM): 0.206 | relative viability (LU99A; first compound 0.01581 µM): 0.246 | relative viability (LU99A; first compound 0.05 µM): 0.218 | relative viability (LU99A; first compound 0.1581 µM): 0.203 | relative viability (LU99A; first compound 0.5 µM): 0.274 | relative viability (NCI-H1563; first compound 0.005 µM): 0.45 | relative viability (NCI-H1563; first compound 0.01581 µM): 0.539 | relative viability (NCI-H1563; first compound 0.05 µM): 0.541 | relative viability (NCI-H1563; first compound 0.1581 µM): 0.52 | relative viability (NCI-H1563; first compound 0.5 µM): 0.472 | relative viability (NCI-H1666; first compound 0.005 µM): 0.89 | relative viability (NCI-H1666; first compound 0.01581 µM): 0.998 | relative viability (NCI-H1666; first compound 0.05 µM): 0.993 | relative viability (NCI-H1666; first compound 0.1581 µM): 1.01 | relative viability (NCI-H1666; first compound 0.5 µM): 1 | relative viability (NCI-H1975; first compound 0.005 µM): 0.172 | relative viability (NCI-H1975; first compound 0.01581 µM): 0.34 | relative viability (NCI-H1975; first compound 0.05 µM): 0.199 | relative viability (NCI-H1975; first compound 0.1581 µM): 0.198 | relative viability (NCI-H1975; first compound 0.5 µM): 0.316 | relative viability (NCI-H2126; first compound 0.005 µM): 0.823 | relative viability (NCI-H2126; first compound 0.01581 µM): 0.964 | relative viability (NCI-H2126; first compound 0.05 µM): 0.875 | relative viability (NCI-H2126; first compound 0.1581 µM): 0.697 | relative viability (NCI-H2126; first compound 0.5 µM): 0.855 | relative viability (NCI-H2342; first compound 0.005 µM): 0.673 | relative viability (NCI-H2342; first compound 0.01581 µM): 0.656 | relative viability (NCI-H2342; first compound 0.05 µM): 0.802 | relative viability (NCI-H2342; first compound 0.5 µM): 0.626 | relative viability (NCI-H23; first compound 0.01581 µM): 0.198 | relative viability (NCI-H23; first compound 0.05 µM): 0.193 | relative viability (NCI-H23; first compound 0.1581 µM): 0.206 | relative viability (NCI-H23; first compound 0.5 µM): 0.207 | relative viability (NCI-H2405; first compound 0.005 µM): 0.644 | relative viability (NCI-H2405; first compound 0.01581 µM): 0.953 | relative viability (NCI-H2405; first compound 0.05 µM): 0.723 | relative viability (NCI-H2405; first compound 0.1581 µM): 0.684 | relative viability (NCI-H2405; first compound 0.5 µM): 0.54 | relative viability (NCI-H322M; first compound 0.005 µM): 0.797 | relative viability (NCI-H322M; first compound 0.01581 µM): 0.882 | relative viability (NCI-H322M; first compound 0.05 µM): 0.958 | relative viability (NCI-H322M; first compound 0.1581 µM): 0.694 | relative viability (NCI-H322M; first compound 0.5 µM): 0.965 | relative viability (PC-14; first compound 0.005 µM): 0.115 | relative viability (PC-14; first compound 0.01581 µM): 0.139 | relative viability (PC-14; first compound 0.05 µM): 0.187 | relative viability (PC-14; first compound 0.1581 µM): 0.15 | relative viability (PC-14; first compound 0.5 µM): 0.139 | relative viability (RERF-LC-KJ; first compound 0.005 µM): 1.16 | relative viability (RERF-LC-KJ; first compound 0.01581 µM): 1.29 | relative viability (RERF-LC-KJ; first compound 0.05 µM): 1.25 | relative viability (RERF-LC-KJ; first compound 0.1581 µM): 1.25 | relative viability (RERF-LC-KJ; first compound 0.5 µM): 1.14 | relative viability (SK-LU-1; first compound 0.005 µM): 0.197 | relative viability (SK-LU-1; first compound 0.01581 µM): 0.211 | relative viability (SK-LU-1; first compound 0.05 µM): 0.201 | relative viability (SK-LU-1; first compound 0.1581 µM): 0.184 | relative viability (SK-LU-1; first compound 0.5 µM): 0.207 | relative viability (SW 1573; first compound 0.005 µM): 0.644 | relative viability (SW 1573; first compound 0.01581 µM): 0.224 | relative viability (SW 1573; first compound 0.05 µM): 0.248 | relative viability (SW 1573; first compound 0.1581 µM): 0.226 | relative viability (SW 1573; first compound 0.5 µM): 0.343 | relative viability (SW 900; first compound 0.005 µM): 0.174 | relative viability (SW 900; first compound 0.01581 µM): 0.186 | relative viability (SW 900; first compound 0.05 µM): 0.184 | relative viability (SW 900; first compound 0.1581 µM): 0.167 | relative viability (SW 900; first compound 0.5 µM): 0.172
